Test results reported in PubChem BioAssay (NCI).
Several values for one entry are separate records, joined by “and”; a condition that tells them apart may be missing. Equal entries are not always repeated.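 Cells were grown in 96-well plates and exposed to each compound for 48 hours at five concentrations; endpoints were interpolated linearly between bracketing concentrations, or set to the highest concentration if not reached. GI50 marks 50% less growth. TGI: total growth inhibition.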

How the values were obtained:
Assay in all cases: inhibition of tumour cell growth, NCI panel, 48 h
SF-539 CNS = system: SF-539 CNS
T-47D breast = system: T-47D breast
SW-620 colon = system: SW-620 colon
KM12 colon = system: KM12 colon
HCT-15 colon = system: HCT-15 colon
SR leukemia = system: SR leukemia
SK-MEL-5 melanoma = system: SK-MEL-5 melanoma

Structure (SMILES) | TGI (SF-539 CNS) | TGI (T-47D breast) | TGI (SW-620 colon) | TGI (KM12 colon) | TGI (HCT-15 colon) | TGI (SR leukemia) | TGI (SK-MEL-5 melanoma) | GI50 (SF-539 CNS) | GI50 (T-47D breast) | GI50 (SW-620 colon) | GI50 (KM12 colon) | GI50 (HCT-15 colon) | GI50 (SK-MEL-5 melanoma)
CNC(=O)OCC1=C(COC(=O)NC)C(C)N(c2ccc(OC)cc2)C1 (stereo not given) | > 100 µM | > 100 µM | > 100 µM | > 100 µM | > 100 µM | 93.8 µM | > 100 µM | – | – | – | – | – | –
COC(=O)C1CCC(=O)N1C(c1ccccc1)c1ccc(OC)c(OC)c1 (stereo not given) | > 100 µM | > 100 µM | > 100 µM | > 100 µM | > 100 µM | > 100 µM | > 100 µM | – | – | – | – | – | –
O=C1CCC(=O)N1n1c(Cc2ccccc2)n[nH]c1=O | – | > 100 µM | > 100 µM | 46.4 µM | > 100 µM | > 100 µM | > 100 µM | – | – | – | – | – | –
Cc1cc(O)c2c(=O)c3ccccc3[nH]c2c1 | 33 µM | – | > 100 µM | > 100 µM | 52.1 µM | 52.6 µM | 31.1 µM | – | – | – | – | – | –
CC1=C(C)[C@@]2(C)O[C@@]2(C)O[C@@]2(C)O[C@@]12C | – | > 100 µM | – | > 100 µM | > 100 µM | > 100 µM | > 100 µM | – | – | – | – | – | –
FC(F)(F)c1cc(Cl)cnc1N/N=C(/c1ccccc1)c1ccccn1 | 12.9 µM | – | > 100 µM | 30.1 µM | > 100 µM | – | > 100 µM | – | – | – | – | – | –
O=C(O)CN(CC(=O)O)C1CCCCC1N(CC(=O)O)CC(=O)NCCN=C=S (stereo not given) | > 100 µM | > 100 µM | > 100 µM | > 100 µM | > 100 µM | – | > 100 µM | – | – | – | – | – | –
Cc1cc(N(CCC#N)CCC#N)ccc1/C(N=Nc1ccc(Cl)cc1)=N\NC(=O)c1ccccc1 | 50.8 µM | 88.3 µM | – | > 100 µM | > 100 µM | > 100 µM | > 100 µM | – | – | – | – | – | –
CC(C)/C(Cl)=N\OC(=O)Nc1ccc(S(N)(=O)=O)cc1 | 31.5 µM | 52 µM | 3.41 µM | 33.3 µM | 31.6 µM | 5.17 µM | 29.4 µM | – | – | – | – | – | –
COc1cc(/C=C/C(=N\NS(=O)(=O)c2ccc(C)cc2)c2sc(NNC(C)=O)nc2C)ccc1O | > 100 µM | > 100 µM | > 100 µM | > 100 µM | > 100 µM | > 100 µM | > 100 µM | – | – | – | – | – | –
Cc1cccc(/C=N/NC(=S)Nc2ccccc2)n1 | 10.4 µM | > 29.2 µM | > 100 µM | > 100 µM | > 38.4 µM | > 100 µM | > 22.5 µM | – | – | – | – | – | –
CCC1(O)CC2CC(=O)OC2C1O (stereo not given) | > 100 µM | > 100 µM | > 100 µM | > 100 µM | > 100 µM | > 100 µM | > 100 µM | – | – | – | – | – | –
CCCNC1=C2CC(C)CC(OC)[C@@H](O)[C@H](C)/C=C(\C)C(OC(N)=O)C(OC)/C=C\C=C(/C)C(=O)NC(=CC1=O)C2=O (stereo not given in full) | 18.3 µM | 35 µM | > 100 µM | 0.673 µM and 0.727 µM | 28.1 µM | – | 18.3 µM | 0.402 µM | 1.15 µM | 0.0606 µM | 0.0239 µM | 0.46 µM | 0.0343 µM
COc1c(C)c(C/C=C(\C)CCCCO[Si](c2ccccc2)(c2ccccc2)C(C)(C)C)c(OC)c(OC)c1OC | > 46.4 µM | > 100 µM | > 46.4 µM | 26.4 µM | > 46.4 µM | > 46.4 µM | 38.6 µM | – | – | – | – | – | –
COc1ccc(CNc2nc(NCc3ccc(OC)c(OC)c3)nc(NC3CCCCC3)n2)cc1 | 8.46 µM | > 100 µM | > 100 µM | 17 µM | 5.64 µM | > 100 µM | 7.41 µM | – | – | – | – | – | –
COc1cc(/C=C2\S/C(=N/Nc3nc(-c4ccc(Br)cc4)cs3)NC2=O)cc(OC)c1OC | 29.1 µM | – | 30.8 µM | 32.8 µM | 36.1 µM | – | 20.2 µM | – | – | – | – | – | –
CC[C@@]1(C[C@H]2C[C@@]3(C(=O)OC)c4[nH]c5ccccc5c4CCN3C2=O)COC2(CCCCC2)O1 | > 100 µM | > 100 µM | – | 66.9 µM | > 100 µM | > 100 µM | 41.2 µM | – | – | – | – | – | –
CCC[C@@H](O)C[C@@H]1CCC[C@H](C[C@@H](O)CC)N1C | > 100 µM | > 100 µM | > 100 µM | > 100 µM | > 100 µM | > 100 µM | > 100 µM | – | – | – | – | – | –
COc1ccc(N2C(=O)C3c4[nH]c5ccccc5c4C4CCC(C(C)(C)C)CC4C3C2=O)c(C)c1 (stereo not given) | > 100 µM | > 100 µM | > 100 µM | > 100 µM | > 100 µM | > 100 µM | > 100 µM | – | – | – | – | – | –
C=C(Br)C(C)(Cl)CCC(Br)C(C)(C)Cl (stereo not given) | > 100 µM | > 100 µM | 94.7 µM | > 100 µM | > 100 µM | > 100 µM | > 100 µM | – | – | – | – | – | –
CC(C)CC(=O)OC[n+]1ccc(-c2c(COC(=O)NC(C)C)c(COC(=O)NC(C)C)c3n2CCC3)cc1 | > 100 µM | > 100 µM | > 100 µM | > 100 µM | > 100 µM | > 100 µM | > 100 µM | – | – | – | – | – | –
O=C1/C(=C/c2ccc(O)cc2)CC/C1=C\c1ccc(O)cc1 | > 100 µM | > 100 µM | > 100 µM | > 100 µM | > 100 µM | > 100 µM | > 100 µM | – | – | – | – | – | –
Oc1cc2c3c(c1)c1cc4c(cc1c[n+]3CC2)OCO4 | > 100 µM | 22.5 µM | > 36.6 µM | 13.9 µM | > 100 µM | – | > 100 µM | – | – | – | – | – | –
C(/c1ccco1)=c1/nc(-c2ccccc2)n2c1nc1ccccc12 | > 100 µM | > 100 µM | > 100 µM | > 100 µM | > 100 µM | 43 µM | > 100 µM | – | – | – | – | – | –
CN1CCN([C@H]2C[C@H]3[C@@H]4CC=C5C[C@@H](O)CC[C@]5(C)[C@H]4CC[C@]3(C)C2=O)CC1 | > 100 µM | > 100 µM | > 100 µM | > 100 µM | > 100 µM | 70.1 µM | > 100 µM | – | – | – | – | – | –
CCOC(=O)Nn1c(C)nnc1-c1ccccc1 | > 100 µM | > 100 µM | > 100 µM | > 100 µM | > 100 µM | > 100 µM | > 100 µM | – | – | – | – | – | –
